Common to all, as to format: in vivo
In test [1] the test system is skin flap made on the back of a rat. The test can be described thus: Skin flap (skin damage) model on the back of rats. Conditions: six weeks after skin flap production; 50 μg/administration/day, five administrations, FIG. 26.
For test [2], the system named is rat cerebral infarction model. Kind of test: Middle cerebral artery thread occlusion model (cerebral infarction). Conditions: 50 μg caudal vein. The text has this: Eight- to ten-week-old male Wister rats were used. Rats were anesthetized by isoflurane inhalation while warming on a keep-warm mat with a body temperature monitor. After confirming that the anesthetic effect was sufficient, cervical hair was removed to expose the skin. The surgical site was sterilized with alcohol. Along the cervical median line, the skin was incised with a scalpel. After the right external carotid artery was ligated and the right common carotid artery was pressurized to temporarily block the blood flow, an occlusion thread made of #4 monofilament nylon with siliconized tip was inserted into the right external carotid artery toward the right internal carotid artery. While releasing the pressure on the common carotid artery, the occlusion thread was advanced along with the blood stream from the internal carotid artery up to the bifurcation to the middle cerebral artery so that the blood flow was blocked. Furthermore, the thread around the right common carotid artery was ligated to completely block the blood flow for 50 minutes. After removing the occlusion thread and loosening the ligature at the common carotid artery, the skin was sutured to complete the surgery.
50 μg of synthetic peptide (1-44) was administered at the caudal vein. The first administration was carried out 6 hours after the production of cerebral infarction. Then, the peptide was administered five times at 24-hour intervals (five days in total).
After 14 days of the final drug administration, the rats were given sufficiently deep anesthesia, and placed in a container filled with carbon dioxide. The complete arrest of heartbeat and breathing was confirmed. Brains were excised and immediately fixed by immersion in buffered 10% formalin. After paraffin embedding, thin sections were prepared and stained with hematoxylin-eosin. Four sections were prepared from each brain at 1.92 mm anterior to bregma (1.92), 0.60 mm anterior to bregma (0.60), 1.56 mm posterior to bregma (−1.56), and 3.24 mm posterior to bregma (−3.24), and the areas were compared.

Test [3] concerns skin flap made on the back of a rat. The test can be described thus: Skin flap (skin damage) model on the back of rats. Conditions: for area of wound section (necrosed section) in the skin flap: FIG. 25. The procedure:
Experimental animals used were SD rats (male, eight weeks old). After sufficiently deep anesthesia by isoflurane inhalation, a rectangular skin incision of 3 cm width×7 cm length was made on the back. The cephalic side was left uncut, and the skin was thoroughly detached from the subcutaneous tissues. The three incised sides were sutured to the surrounding skin using #4 silk suture, and protected with Tegaderm (3M) to prevent bacterial infection.
The full-length mouse HMGB1 (100 μg/administration/day) produced in HEK293 and chemically synthesized HMGB1 peptide (amino acids 1 to 44; 50 μg/administration/day) were diluted to 200 μl with phosphate buffer and administered to rats via the caudal vein. The first administration was performed 6 hours after the surgery, and then the agents were administered every 24 hours a total of five times. Phosphate-buffered physiological saline was administered as a negative control. Tegaderm was removed after one week, and the wound region was observed weekly to measure the areas of necrosis and ulceration.
Experimental animals used were 15 SD rats (male, eight weeks old) per group. After sufficient anesthesia by isoflurane inhalation, a rectangular skin incision of 3 cm width×7 cm length was made on the back. The cephalic side was left uncut, and the skin was thoroughly detached from the subcutaneous tissues. The incised three sides were sutured to the surrounding skin using #4 silk suture, and protected with Tegaderm (3M) to prevent bacterial infection.
Chemically synthesized HMGB1 peptide (amino acids 1-44; 50 μg/administration/day) or HMGB1 peptide (amino acids 17-25; 50 μg/administration/day) was diluted to 200 μl with phosphate buffer and administered to the rats with experimental wound. The first administration was performed 6 hours after the surgery, and then the agents were administered every 24 hours a total of five times. Phosphate-buffered physiological saline was administered as a negative control. Tegaderm was removed after one week, and the wound was observed two weeks after the wound production. Uncured areas (ulceration and necrosis) were measured.

As for “synthetic peptide (1-44): chemically synthesized HMGB1 peptide, amino acids 1 to 44, mouse HMGB1 sequence (MGKGDPKKPRGKMSSYAFFVQTCREEHKKKHPDASVNFSEFSKK; UniProt P63158 1-44, looked up, fragment)”, the “ratio of the uncured area relative to the area of the whole skin flap, average” value in test [1] is recorded as 4.1%; in test [3] (two weeks after skin flap production, 50 μg/administration/day, five administrations, 15 SD rats per group, FIG. 26), 14.1%. Besides, in test [2] (five administrations, versus negative control (PBS), FIG. 17), the “infarction area (% ratio to normal brain area in the right brain), four sections” value is recorded as “significantly reduced as compared to the negative control group”. Also, the “animals showing expansion of the infarction to the cortex” value in test [2] (N=10, first 6 h after infarction, five times at 24-hour intervals, 14 days after final administration, negative control 8 of 11) is recorded as “only one mouse showed expansion of the infarction to the cortex”. Further, the “animals in which the infarction was limited in the basal nucleus” value in test [2] (N=10, five administrations, 14 days after final administration) is on record as 9. The “area of wound section (necrosed section) in the skin flap” value was “a further shrinking effect was observed” in test [3] (after four weeks and later, versus the other two groups); “effect of shrinking the wound section was confirmed” in test [3] (one to three weeks after the skin flap was made, versus negative control). Also, in test [3] (one week after surgery, caudal vein, five administrations, full-length 100 μg, peptide 50 μg/administration/day, negative control four of five), the “rats in which skin necrosis developed” value is recorded as “one of five rats”. For the same substance, in test [3] (seven weeks after surgery, same regimen, negative control four of five, FIG. 24), the “rats with severe skin contracture” value is given as “two of five rats”.
